Data taken from PMC9516332 (Frontiers in Oncology, 2022).
Like-named read-outs stand apart in the source and are kept apart here.

Experiments:
Test in all cases: Kinase panel profiling at 1 µmol/L (MSA or IMAP), percentage inhibition
Format in all cases: biochemical
[1] = molecular target: T1, panel of 255 wild-type kinases (Homo sapiens, UniProt O14965); conditions: 1 µmol/L single concentration
T1 sequence (O14965 1-403): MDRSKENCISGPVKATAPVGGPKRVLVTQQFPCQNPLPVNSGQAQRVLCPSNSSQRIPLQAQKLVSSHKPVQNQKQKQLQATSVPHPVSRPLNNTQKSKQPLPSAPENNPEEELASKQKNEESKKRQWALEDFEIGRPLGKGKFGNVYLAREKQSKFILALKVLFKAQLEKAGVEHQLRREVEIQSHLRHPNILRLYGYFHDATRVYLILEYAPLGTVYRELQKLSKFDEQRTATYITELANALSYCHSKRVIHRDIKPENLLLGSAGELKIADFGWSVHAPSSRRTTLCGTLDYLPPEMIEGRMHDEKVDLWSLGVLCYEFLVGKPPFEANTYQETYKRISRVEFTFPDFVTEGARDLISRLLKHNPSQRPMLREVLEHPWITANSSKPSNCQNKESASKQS

[2] = molecular target: T2, panel of 255 wild-type kinases (Homo sapiens, UniProt O60285); conditions: NuaK1; 1 µmol/L single concentration; read-out: %-inhibition, NuaK1
T2 sequence (O60285 1-661): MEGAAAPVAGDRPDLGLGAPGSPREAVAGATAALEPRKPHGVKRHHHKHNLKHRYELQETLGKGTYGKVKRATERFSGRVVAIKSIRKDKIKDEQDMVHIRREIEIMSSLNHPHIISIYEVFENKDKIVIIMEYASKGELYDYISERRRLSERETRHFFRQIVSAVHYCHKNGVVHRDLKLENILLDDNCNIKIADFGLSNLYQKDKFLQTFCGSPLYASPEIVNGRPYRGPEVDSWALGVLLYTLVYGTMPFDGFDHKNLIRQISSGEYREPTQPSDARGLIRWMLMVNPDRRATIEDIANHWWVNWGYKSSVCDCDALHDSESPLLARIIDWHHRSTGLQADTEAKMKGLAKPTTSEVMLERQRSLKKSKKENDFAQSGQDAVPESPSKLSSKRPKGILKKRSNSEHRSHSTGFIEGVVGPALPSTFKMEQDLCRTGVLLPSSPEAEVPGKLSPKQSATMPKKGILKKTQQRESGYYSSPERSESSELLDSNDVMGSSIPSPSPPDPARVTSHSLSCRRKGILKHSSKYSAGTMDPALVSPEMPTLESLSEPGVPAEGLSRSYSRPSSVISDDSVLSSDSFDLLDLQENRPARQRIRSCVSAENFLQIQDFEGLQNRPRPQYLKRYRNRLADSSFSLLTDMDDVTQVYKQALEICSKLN

[3] = molecular target: panel of 255 wild-type kinases (Homo sapiens, UniProt P00533); conditions: kinase EGFR; 1 µmol/L single concentration; read-out: %-inhibition at 1 µmol/L, EGFR
[4] = molecular target: panel of 255 wild-type kinases (Homo sapiens, UniProt P08631); conditions: kinase HCK; 1 µmol/L single concentration; read-out: %-inhibition at 1 µmol/L, HCK
[5] = molecular target: panel of 255 wild-type kinases (Homo sapiens, UniProt P11362); conditions: kinase FGFR1; 1 µmol/L single concentration; read-out: %-inhibition at 1 µmol/L, FGFR1
[6] = molecular target: panel of 255 wild-type kinases (Homo sapiens, UniProt P22607); conditions: read-out: %-inhibition at 1 µmol/L, FGFR3
[7] = molecular target: panel of 255 wild-type kinases (Homo sapiens, UniProt P23443); conditions: p70S6K; 1 µmol/L single concentration; read-out: %-inhibition, p70S6K
[8] = molecular target: panel of 255 wild-type kinases (Homo sapiens, UniProt P53350); conditions: kinase PLK1; 1 µmol/L single concentration; read-out: %-inhibition at 1 µmol/L, PLK1
[9] = molecular target: panel of 255 wild-type kinases (Homo sapiens, UniProt P53355); conditions: kinase DAPK1; 1 µmol/L single concentration; read-out: %-inhibition at 1 µmol/L, DAPK1
[10] = molecular target: panel of 255 wild-type kinases (Homo sapiens, UniProt P53779); conditions: kinase JNK3; 1 µmol/L single concentration; read-out: %-inhibition at 1 µmol/L, JNK3
[11] = molecular target: panel of 255 wild-type kinases (Homo sapiens, UniProt Q15418); conditions: kinase RSK1; 1 µmol/L single concentration; read-out: %-inhibition at 1 µmol/L, RSK1
[12] = molecular target: panel of 255 wild-type kinases (Homo sapiens, UniProt Q16512); conditions: kinase PKN1; 1 µmol/L single concentration; read-out: %-inhibition at 1 µmol/L, PKN1
[13] = molecular target: panel of 255 wild-type kinases (Homo sapiens, UniProt Q16654); conditions: kinase PDHK4; 1 µmol/L single concentration; read-out: %-inhibition at 1 µmol/L, PDHK4
[14] = molecular target: panel of 255 wild-type kinases (Homo sapiens, UniProt Q9Y3S1); conditions: kinase WNK2; 1 µmol/L single concentration; read-out: %-inhibition at 1 µmol/L, WNK2
[15] = AurA kinase assay, read-out: %-inhibition AurA
[16] = AurA/TPX2 kinase assay, read-out: %-inhibition AurA/TPX2
[17] = kinase FGFR3, 1 µmol/L single concentration

SMILES	inhibition at 1 µM [1, 15] [%]	inhibition at 1 µM [1, 16] [%]	inhibition at 1 µM [2] [%]	inhibition at 1 µM [3] [%]	inhibition at 1 µM [4] [%]	inhibition at 1 µM [5] [%]	inhibition at 1 µM [6, 17] [%]	inhibition at 1 µM [7] [%]	inhibition at 1 µM [8] [%]	inhibition at 1 µM [9] [%]	inhibition at 1 µM [10] [%]	inhibition at 1 µM [11] [%]	inhibition at 1 µM [12] [%]	inhibition at 1 µM [13] [%]	inhibition at 1 µM [14] [%]	inhibition at 1 µM [6] [%]
C[C@H](Nc1ncnc2nc[nH]c12)c1cc2cccc(Cl)c2c(=O)n1-c1ccccc1 [duvelisib]	-4.54	1.81	0.44	6	6	-0.103	0.29	6	0.784	-3.23	-10	-0.755	11	3	-1.82	–
COC(=O)N[C@@H](C)CNc1nccc(-c2cn(C(C)C)nc2-c2cc(Cl)cc(NS(C)(=O)=O)c2F)n1 [encorafenib]	0.211	-3.31	-0.237	9	-5.46	4.27	1	14	-2.56	-1	59	-2	6	-2.11	-0.751	–
CCc1nc(C(N)=O)c(Nc2ccc(N3CCC(N4CCN(C)CC4)CC3)c(OC)c2)nc1NC1CCOCC1 [gilteritinib]	80	71	98	85	87	55	76	79	7.52	71	52	54	65	3	-1	–
O=C(Nc1cnn2ccc(N3CCC[C@@H]3c3cc(F)ccc3F)nc12)N1CC[C@H](O)C1 [larotrectinib]	-4.5	-3	13	5	-3	-2	–	-1.58	-1.17	-4	-7	-3.46	7	2	-2	1.36
C[C@H]1Oc2cc(cnc2N)-c2c(nn(C)c2C#N)CN(C)C(=O)c2ccc(F)cc21 [lorlatinib]	21	29	26	9.49	42	3.43	-0.405	8	2.12	6.55	-8.55	2.31	4.68	-0.664	-0.739	–
CO[C@]1(C(=O)N[C@@H](C)c2ccc(-n3cc(F)cn3)nc2)CC[C@H](c2nc(C)cc(Nc3cc(C)[nH]n3)n2)CC1 [pralsetinib]	73	70	91	48	82	96	96	29	-2.47	53	6	26	27	12	-1	–
CCn1c(=O)c(-c2cc(NC(=O)Nc3ccccc3)c(F)cc2Br)cc2cnc(NC)cc21 [ripretinib]	-2	-0.807	4.32	10	60	92	52	64	4	-10	10	8	10	4	-1.64	–
COc1ccc(CN2C3CC2CN(c2ccc(-c4cc(OCC(C)(C)O)cn5ncc(C#N)c45)cn2)C3)cn1 [selpercatinib]	66	71	10	0.116	58	97	95	42	-0.437	26	-8.47	51	9	-2.71	-2.37	–
Cn1cnc2c(F)c(Nc3ccc(Br)cc3Cl)c(C(=O)NOCCO)cc21 [selumetinib]	-5.67	-8	6	26	4	-1.41	2.76	8	-4	2.59	2.14	-8	10	0.425	-4	–
Cc1cc(Nc2ncnc3ccc(NC4=NC(C)(C)CO4)cc23)ccc1Oc1ccn2ncnc2c1 [tucatinib]	-1.53	-9	9	95	-3	-3.24	2.63	15	-3.69	1.6	1.13	-4.66	18	7.57	0.536	–
